# In patent US6979686B1, “Substituted pyrazoles as p38 kinase inhibitors” (Pharmacia Corporation, priority 2001, dated 2005):
# Where two headings read alike, the source gives them in different places.
# Molecular target: T1, human p38 kinase alpha (Homo sapiens, UniProt Q16539)
# T1 construct: GST (N, cleaved yes); made in house; host or cells: E. coli DH10B
# Experiment: p38 kinase in vitro assay, phosphorylation of biotinylated PHAS-I with 32P-ATP
# Format: biochemical
# Conditions: for IC50: read-out: P38 alpha kinase IC50
# [1] = in vitro P38-alpha kinase inhibition
# T1 sequence (Q16539 whole entry): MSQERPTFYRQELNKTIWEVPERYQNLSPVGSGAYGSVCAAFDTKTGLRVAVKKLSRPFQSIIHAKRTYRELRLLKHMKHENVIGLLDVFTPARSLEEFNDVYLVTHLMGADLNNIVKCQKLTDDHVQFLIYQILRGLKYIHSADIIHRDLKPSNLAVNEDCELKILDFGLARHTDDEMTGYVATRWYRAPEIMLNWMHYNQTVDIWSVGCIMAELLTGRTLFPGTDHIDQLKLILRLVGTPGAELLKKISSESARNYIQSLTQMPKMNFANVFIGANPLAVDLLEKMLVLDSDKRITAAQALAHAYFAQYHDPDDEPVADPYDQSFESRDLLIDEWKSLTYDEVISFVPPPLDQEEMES
smiles,measurement,setting,value
CC(NS(=O)(=O)c1ccc(F)c(Cl)c1)c1[nH]nc(-c2ccc(F)cc2)c1-c1ccncc1 (stereo not drawn) [Example B-0643],IC50,[1],69 nM
CC(NS(=O)(=O)c1ccc2ccccc2c1)c1[nH]nc(-c2ccc(F)cc2)c1-c1ccncc1 (stereo not drawn) [Example B-0652],IC50,[1],190 nM
O=C(NCCCc1[nH]nc(-c2ccc(F)cc2)c1-c1ccncc1)c1ccccc1C(F)(F)F [Example B-1173],P38 alpha kinase % inhib @ conc. (uM),@ 1.0 uM,65.0% @
COc1ccc(Cl)cc1S(=O)(=O)N1CCC(c2[nH]nc(-c3ccc(F)cc3)c2-c2ccncc2)CC1 [Example B-1445],IC50,in vitro P38-alpha kinase,430 nM
O=S(=O)(NC(Cc1ccccc1)c1[nH]nc(-c2ccc(F)cc2)c1-c1ccncc1)c1ccccc1 (stereo not drawn) [Example B-0708],IC50,[1],2100 nM
C[C@@H](NS(=O)(=O)c1cccc(Br)c1)c1[nH]nc(-c2ccc(F)cc2)c1-c1ccncc1 [Example B-0455],IC50,[1],< 100 nM
O=S(=O)(NCCCc1[nH]nc(-c2ccc(F)cc2)c1-c1ccncc1)c1cccc2cccnc12 [Example B-1248],IC50,in vitro P38-alpha kinase,< 100 nM
CN(C)C(=O)NC(Cc1ccccc1)c1[nH]nc(-c2ccc(F)cc2)c1-c1ccncc1 (stereo not drawn) [Example B-0729],IC50,[1],870 nM
O=S(=O)(C=Cc1ccccc1)NC(Cc1ccccc1)c1[nH]nc(-c2ccc(F)cc2)c1-c1ccncc1 (stereo not drawn) [Example B-0755],IC50,[1],2300 nM
Cc1c(-c2ccncc2)c(-c2ccc(F)cc2)nn1CC(=O)N(C)CC(N)=O [Example B-2400],"P38 alpha kinase IC50, uM or % inhib @ conc. (uM): % inhib",@ 10.0 uM,60.0% @
CC(NC(=O)c1ccccc1Br)c1[nH]nc(-c2ccc(F)cc2)c1-c1ccncc1 (stereo not drawn) [Example B-0703],IC50,[1],120 nM
O=C(NCCc1[nH]nc(-c2ccc(F)cc2)c1-c1ccncc1)c1c(F)cccc1C(F)(F)F [Example B-1137],IC50,[1],38 nM
O=C(Nc1cccc(F)c1)NC(Cc1ccccc1)c1[nH]nc(-c2ccc(F)cc2)c1-c1ccncc1 (stereo not drawn) [Example B-0740],IC50,[1],4400 nM
COC(=O)C(Cc1ccc([N+](=O)[O-])cc1)NC(=O)Cn1nc(-c2ccc(F)cc2)c(-c2ccncc2)c1C (stereo not drawn) [Example B-2349],P38 alpha kinase % inhib @ conc.,@ 10.0 uM,75.0% @
Cc1noc(C)c1C(=O)N1CCC(c2[nH]nc(-c3ccc(F)cc3)c2-c2ccncc2)CC1 [Example B-1403],IC50,in vitro P38-alpha kinase,4540 nM
COc1ccccc1C(=O)NC(C)c1[nH]nc(-c2ccc(F)cc2)c1-c1ccncc1 (stereo not drawn) [Example B-0544],IC50,[1],1120 nM
CSc1ccccc1NC(=O)Cn1nc(-c2ccc(F)cc2)c(-c2ccncc2)c1C [Example B-2428],"P38 alpha kinase IC50, uM or % inhib @ conc. (uM): % inhib",@ 10.0 uM,82.0% @
O=C(c1ccc(Cl)c(Cl)c1)N1CCC(c2[nH]nc(-c3ccc(F)cc3)c2-c2ccncc2)CC1 [Example B-1418],IC50,in vitro P38-alpha kinase,1010 nM
COc1ccc(NC(=O)NC(C)c2[nH]nc(-c3ccc(F)cc3)c2-c2ccncc2)cc1 (stereo not drawn) [Example B-0596],IC50,[1],20000 nM
O=S(=O)(c1cccc(F)c1)N1CCC(c2[nH]nc(-c3ccc(F)cc3)c2-c2ccncc2)CC1 [Example B-1464],IC50,in vitro P38-alpha kinase,1180 nM
O=C(NCCCc1[nH]nc(-c2ccc(F)cc2)c1-c1ccncc1)c1ccc(C(F)(F)F)cc1 [Example B-1356],IC50,in vitro P38-alpha kinase,59 nM
O=S(=O)(c1ccc(F)cc1F)N1CCC(c2[nH]nc(-c3ccc(F)cc3)c2-c2ccncc2)CC1 [Example B-1454],IC50,in vitro P38-alpha kinase,1600 nM
C[C@@H](NS(=O)(=O)c1cc(Cl)cc(Cl)c1)c1[nH]nc(-c2ccc(F)cc2)c1-c1ccncc1 [Example B-0464],IC50,[1],< 100 nM
Cc1c(-c2ccncc2)c(-c2ccc(F)cc2)nn1CC(=O)NCC(=O)Nc1ccccc1 [Example B-2441],"P38 alpha kinase IC50, uM or % inhib @ conc. (uM): % inhib",@ 10.0 uM,86.0% @
Cc1c(-c2ccncc2)c(-c2ccc(F)cc2)nn1CC(=O)NCc1ccccc1Cl [Example B-2274],IC50,in vitro P38-alpha kinase,260 nM
CC(=O)Nc1ccc(S(=O)(=O)NCCCc2[nH]nc(-c3ccc(F)cc3)c2-c2ccncc2)cc1 [Example B-1236],IC50,in vitro P38-alpha kinase,100 nM
C=CCOC(=O)N1CCC(c2[nH]nc(-c3ccc(F)cc3)c2-c2ccncc2)CC1 [Example B-1362],IC50,in vitro P38-alpha kinase,3 nM
CC1(C)[C@@H]2CC[C@@]1(S(=O)(=O)NCCCc1[nH]nc(-c3ccc(F)cc3)c1-c1ccncc1)C(=O)C2 [Example B-1277],IC50,in vitro P38-alpha kinase,< 100 nM
Cc1c(-c2ccncc2)c(-c2ccc(F)cc2)nn1CC(=O)Nc1ccc(OCCOc2ccccc2)cc1 [Example B-2448],"P38 alpha kinase IC50, uM or % inhib @ conc. (uM): % inhib",@ 10.0 uM,75.0% @
Cc1c(-c2ccncc2)c(-c2ccc(F)cc2)nn1CC(=O)NCCc1csc2ccccc12 [Example B-2308],IC50,in vitro P38-alpha kinase,660 nM
Cc1c(-c2ccncc2)c(-c2ccc(F)cc2)nn1CC(=O)Nc1ccc(Cl)nc1 [Example B-2415],"P38 alpha kinase IC50, uM or % inhib @ conc. (uM): % inhib",@ 10.0 uM,94.0% @
O=C(NC(Cc1ccccc1)c1[nH]nc(-c2ccc(F)cc2)c1-c1ccncc1)c1ccncc1 (stereo not drawn) [Example B-0822],IC50,[1],1330 nM
O=C(NCCCc1[nH]nc(-c2ccc(F)cc2)c1-c1ccncc1)c1cccc(Br)c1 [Example B-1167],P38 alpha kinase % inhib @ conc. (uM),@ 1.0 uM,70.0% @
O=S(=O)(NCCCc1[nH]nc(-c2ccc(F)cc2)c1-c1ccncc1)c1ccccc1 [Example B-1191],P38 alpha kinase % inhib @ conc. (uM),@ 1.0 uM,74.0% @
CCCC(=O)COC(=O)NCc1[nH]nc(-c2ccc(F)cc2)c1-c1ccncc1 [Example B-0177],P38 alpha kinase % inhib @ conc.,@ 10.0 uM,70.0% @
Cc1cccc(C)c1NC(=O)NCCCc1[nH]nc(-c2ccc(F)cc2)c1-c1ccncc1 [Example B-1216],P38 alpha kinase % inhib @ conc.,@ 1.0 uM,88.0% @
O=C(NCCCc1[nH]nc(-c2ccc(F)cc2)c1-c1ccncc1)NCCN1CCCCC1 [Example B-1313],IC50,in vitro P38-alpha kinase,35 nM
CC(NC(=O)c1ccccc1I)c1[nH]nc(-c2ccc(F)cc2)c1-c1ccncc1 (stereo not drawn) [Example B-0531],IC50,[1],500 nM
C[C@@H](NS(=O)(=O)c1ccc(Cl)cc1)c1[nH]nc(-c2ccc(F)cc2)c1-c1ccncc1 [Example B-0433],IC50,[1],< 100 nM
Cc1c(-c2ccncc2)c(-c2ccc(F)cc2)nn1CC(=O)NCCN(C)C [Example B-2294],IC50,in vitro P38-alpha kinase,1680 nM
O=C(NC(Cc1ccccc1)c1[nH]nc(-c2ccc(F)cc2)c1-c1ccncc1)c1ccc(I)cc1 (stereo not drawn) [Example B-0839],IC50,[1],4300 nM
O=C(NCCc1ccccc1)NCCc1[nH]nc(-c2ccc(F)cc2)c1-c1ccncc1 [Example B-0945],P38 alpha kinase % inhib @ conc. (uM),@ 1.0 uM,96.0% @
CCS(=O)(=O)NCCCc1[nH]nc(-c2ccc(F)cc2)c1-c1ccncc1 [Example B-1200],P38 alpha kinase % inhib @ conc.,@ 1.0 uM,95.0% @
COc1ccc(NC(=O)N[C@H](C)c2[nH]nc(-c3ccc(F)cc3)c2-c2ccncc2)c(OC)c1 [Example B-0422],IC50,[1],< 100 nM
CCCCS(=O)(=O)NC(Cc1ccccc1)c1[nH]nc(-c2ccc(F)cc2)c1-c1ccncc1 (stereo not drawn) [Example B-0761],IC50,[1],< 100 nM
Cc1c(-c2ccncc2)c(-c2ccc(F)cc2)nn1CC(=O)N(CCc1ccccc1)CCc1ccccn1 [Example B-2402],"P38 alpha kinase IC50, uM or % inhib @ conc. (uM): % inhib",@ 10.0 uM,43.0% @
O=S(=O)(Cc1ccccc1)NCCc1[nH]nc(-c2ccc(F)cc2)c1-c1ccncc1 [Example B-1017],P38 alpha kinase % inhib @ conc. (uM),@ 1.0 uM,96.0% @
CC(C)(C)C(=O)NCCCc1[nH]nc(-c2ccc(F)cc2)c1-c1ccncc1 [Example B-1229],P38 alpha kinase % inhib @ conc.,@ 1.0 uM,87.0% @
CC(C)NC(=O)NC(Cc1ccccc1)c1[nH]nc(-c2ccc(F)cc2)c1-c1ccncc1 (stereo not drawn) [Example B-0723],IC50,[1],470 nM
COCC(=O)NCCCc1[nH]nc(-c2ccc(F)cc2)c1-c1ccncc1 [Example B-1171],P38 alpha kinase % inhib @ conc. (uM),@ 1.0 uM,78.0% @
COc1ccc(CC(=O)NCCc2[nH]nc(-c3ccc(F)cc3)c2-c2ccncc2)cc1 [Example B-1000],P38 alpha kinase % inhib @ conc. (uM),@ 1.0 uM,55.0% @
